Experimental data reported in US11318077B2, “Retinaldehyde containing compositions and methods of use” (RODAN & FIELDS, LLC, priority 2017, dated 2022).
“And” between values parts separate entries of the source, which are not always exact repeats. Equal values may be shown once.

Tests used:
[1] = test system: Retinoic Acid Response Element (RARE) transcription factor pathway; experiment: Cignal RARE Reporter Assay (firefly luciferase) in HEK293 cells; type: cell-based; conditions: for RARE-mediated firefly luciferase expression, % control / RARE-mediated firefly luciferase expression, Fold increase: 24 h, vs water; for Activity in RARE reporter assay: tested concentrations
Source text: Objective: Retinoic Acid Receptor (RAR) controls gene transcription by binding to Retinoid Acid Response Elements (RAREs) in DNA. This process is modulated by all trans retinoic acid (ATRA)—a compound with well-established anti-aging skin benefits. […] Cignal RARE Reporter Assay® is designed to screen for such compounds using cell cultures. The objective of this project was to test 6 compounds (retinoic acid (ATRA), retinol, vitamin A palmitate, retinal, 10% w/w Near-1 in dimethylisosorbide, and 10% w/w retinoid ester in dimethylisosorbide) for the ability to activate RARE in this Cignal RARE Reporter Assay model.
(§1) Materials & Methods: The experiments were performed using HEK293 cells (Sigma, St. Louis, Mo.; cat. #85120602) seeded at 50,000 per well in a 96 well black-wall tissue culture plate. Cells were transfected by mixing Cignal Reporter Assay firefly/renilla luciferase constructs (cat. #CCS-016L; Qiagen) with Attractene Transfection Reagent (Qiagen) in Opti-MEM supplemented with 1% MEM Non-essential amino acid solution without L-glutamine. After medium change test materials were added and their effect on RARE induction was quantified 24 h later with the Dual-Luciferase Reporter Assay System (cat. #E1960; Promega).

[2] = test system: Retinoid X receptor (RXR) transcription factor pathway; experiment: Cignal RXR Reporter Assay (firefly luciferase) in HEK293 cells; type: cell-based; conditions: for RXR activation (% control): 24 h, vs water; for Activity in RXR reporter assay: tested concentrations
Source text: Objective: Retinoid X receptors (RXRs) are one class of nuclear receptors through which retinoids mediate their biological effects. These receptors function as transcription factors by binding as heterodimers to specific sequences in the promoters of target genes. The protein encoded by this gene is a member of the steroid and thyroid hormone receptor superfamily of transcriptional regulators. One of its ligands is all trans retinoic acid (ATRA)—a compound with well-established anti-aging skin benefits. […] Cignal RXR Reporter Assay® is designed to screen for such compounds (retinoic acid (ATRA), retinal, 10% w/w Near-1 in dimethylisosorbide, and 10% w/w retinoid ester in dimethylisosorbide) using cell cultures. The objective of this project was to test four compounds for the ability to activate RXR in this Cignal RXR Reporter Assay model.
as §1, with “The” for “Materials & Methods: The”, “Cignal RXR” for “Cignal”, “#CCS9044L;” for “#CCS-016L;”, “Lglutamine.” for “L-glutamine.”, “RXR” for “RARE”
RXR is a mixture of an inducible retinoid X receptor—responsive firefly luciferase construct and a constitutively expressing Renilla construct, which acts as an internal control for normalizing transfection efficiencies and monitoring cell viability. Signal quantification was obtained with ThermoFisher Scientific Luminoskan Ascent Microplate Luminometer.

Compound	RARE-mediated firefly luciferase expression, % control ([1]; 0.2 μM)	RARE-mediated firefly luciferase expression, Fold increase ([1]; 0.2 μM)	RARE-mediated firefly luciferase expression, % control ([1]; 1 μM)	RARE-mediated firefly luciferase expression, Fold increase ([1]; 1 μM)	RARE-mediated firefly luciferase expression, % control ([1]; 5 μM)	RARE-mediated firefly luciferase expression, Fold increase ([1]; 5 μM)	RXR activation (% control) ([2]; 0.2 μM)	RXR activation (% control) ([2]; 1 μM)	RXR activation (% control) ([2]; 5 μM)	Activity in RXR reporter assay [2]	RARE-mediated firefly luciferase expression, % control ([1]; 10 μM)	RARE-mediated firefly luciferase expression, Fold increase ([1]; 10 μM)	times less effective than retinoic acid in modulating the RARE pathway ([1]; at 1 uM)	effectiveness vs retinoic acid in modulating the RARE pathway ([1]; at 5 uM)	Activity in RARE reporter assay [1]	RXR activation (% control) ([2]; 10 μM)	times less effective in modulating RXR pathway in comparison to retinoic acid ([2]; at 5 uM)
CC1=C(/C=C/C(C)=C/C=C/C(C)=C/C(=O)O)C(C)(C)CCC1 [ATRA, all trans retinoic acid]	775 % control and 1099 % control	7.8 and 11.0	1054 % control and 1284 % control	10.5 and 12.8	973 % control	9.7	201 % control	340 % control	437 % control	best performers	–	–	–	–	–	–	–
CC1=C(/C=C/C(C)=C/C=C/C(C)=C/C=O)C(C)(C)CCC1 [Retinal, retinaldehyde]	–	–	613 % control	6.1	1005 % control	10.0	–	131 % control	181 % control	best performers	946 % control	9.5	1.7 times	equivalent to retinoic acid	best performer	279 % control	2.4 times
CC1=C(/C=C/C(C)=C/C=C/C(C)=C/CO)C(C)(C)CCC1 [Retinol, retinol]	–	–	138 % control and 150 % control	1.4 and 1.5	268 % control and 253 % control	2.7 and 2.5	–	–	–	–	278 % control and 294 % control	2.8 and 2.9	–	–	–	–	–
CCCCCCCCCCCCCCCC(=O)OC/C=C(C)/C=C/C=C(C)/C=C/C1=C(C)CCCC1(C)C [Vit A Palmitate, vitamin A palmitate]	–	–	75 % control and 76 % control	0.7 and 0.8	77 % control and 73 % control	0.8 and 0.7	–	–	–	–	86 % control and 67 % control	0.9 and 0.7	–	–	All test materials except Vit-A-Pal were active	–	–
